In patent publication US10364263B2, “Cyclic phosphates and cyclic phosphoramidates for the treatment of neurologic disorders” (Retrophin, Inc., priority 2015, dated 2019):

What follows are compounds tested on PANK2 silenced human neuroblastoma IMR32 cells (PANK2−/−) (assay: Coenzyme A assay in PANK2 silenced cells (LC-MS quantification of free CoA)). Conditions: compound added twice (24 h + 24 h), relative to 0.1% DMSO controls.
Format: cell-based
Protocol: A human neuroblastoma IMR32 cell line (ATCC) with stably PANK2 silencing was obtained by lentiviral-delivered small hairpin RNA and cultured in MEM (Invitrogen) supplemented with 10% fetal bovine serum, 2 mM glutamine, 1% penicillin-streptomycin, 1 mM sodium pyruvate, 1 mM non essential amino acids and 1.5 g/l sodium bicarbonate.
For lentiviral shRNA expression, Human Emryonic Kidney HEK-293T cells (ATCC) were transfected with the appropriate pGFP-Lenti-shRNA constructs and packaging plasmids according to manufacturer's protocol (Origene Technologies, Inc.). Four different gene-specific shRNA expression vectors designed against multiple splice variants of PANK2 (Gene ID 80025) were used for transfection. A non-silencing shRNA construct (scrambled shRNA) and an empty vector expressing GFP alone were used as negative controls. The GFP tag subcloned into the lentiviral vectors was used to monitor the transfection efficiency.
IMR32 cells were plated on 150 cm dishes 48 h before transduction with lentiviral particles.
Three days after transduction medium was removed and replaced with fresh medium containing […] puromycin. Medium was replaced every 48 h. Levels of PANK2 expression on selected clones was assessed by Western Blot analysis.
To quantify CoA, PANK2^−/− IMR32 cells were plated on 12-well culture plates (Corning) at a density of 0.2×10^6 cells per well. After 72 h, compounds were freshly dissolved in DMSO and added to the culture medium to yield a final solvent concentration of 0.1% (v/v). Controls with medium containing 0.1% DMSO without test compounds were also included in each plate. Compound treated cells were incubated for 24 h at 37° C. Treatment was repeated after 24 h with newly dissolved compound and cells were further incubated at 37° C. for additional 24 h. Before LC-MS analysis of CoA levels, cells were harvested, counted, and collected in a 15 ml falcon tube and centrifuged at 200×g for 5 min at 4° C. Supernatant was removed and cell pellet was washed in 10 ml of ice-cold PBS. To further confirm that the numbers of cells in each sample were equivalent, an equal fraction of pellet was collected from each sample and subjected to protein determination analysis. After centrifugation and supernatant removal, the cell pellet was rapidly frozen in Liquid Nitrogen and stored at −80° C. until analysis.
Intracellular CoA levels were calculated considering an intracellular volume of 1 million cells=2 μl.
The 1×10^6 cellular pellet was extracted with 120 μl of aqueous 20% TFA. This solution was stirred for 2 min, sonicated in ultrasonic bath for 2 min, then stirred again for 1 min, and centrifuged for 15 min at 14000 g and at 4° C.
100 μL samples of supernatant were dried under N2 at 20° C. in the dark.
Samples were re-dissolved in 100 μl of 10 mM NH4^+ AcO^− buffer pH 5.1+IS (Dextrorphan 50 ng/ml), stirred for 2 min, sonicated in ultrasonic bath for 1 min, then stirred again for 1 min, and injected into LC-MS.
LC-MS/MS was performed using an Agilent HPLC (1100 Series, USA). The LC system was interfaced with an API-4000 Q-Trap triple quadrupole mass spectrometer (AB Sciex, Toronto, Canada) equipped with a TurbolonSpray ionization source operating in positive ion mode. Analyst™ software version 1.6 (AB Sciex, Toronto, Canada) was used for data acquisition and processing. CoA was separated using a Luna C18 column (2.0×50 mm; 5 μm particle size), column at 25° C. and flow rate of 0.2 ml/min. Injection volume was 15 μl. The mobile phases consisted of water containing 10 mM ammonium acetate pH 7 (mobile phase A) and MeCN-2-propanol 9:1 (mobile phase B). Elution was performed using a gradient starting at 2% B, holding at 2% B until 0.1 min, increasing to 98% B at 3.2 min, holding at 98% B until 4.5 min, returning to 2% B at 4.6 min and holding at 2% B until 7.5 min. Precursor ions and MRM transitions used were: CoA m/z 768.1→261.6 and 768.1→136.1. […]

SMILES	PANK2−/− CoA (Fold Increase): fold increase in Coenzyme A (CoA) levels relative to controls [Fold Increase]
COC(=O)CCNC(=O)[C@@H]1O[P@@](=O)(OCOC(=O)NC(C)(C)COC(=O)[C@@H](N)C(C)C)OCC1(C)C [2-158, 2-((((((2S,4R)-4-((3-methoxy-3-oxopropyl)carbamoyl)-5,5-dimethyl-2-oxido-1,3,2-dioxaphosphinan-2-yl)oxy)methoxy)carbonyl)amino)-2-methylpropyl L-valinate]	2.72
COC(=O)CCNC(=O)[C@@H]1OP(=O)(Oc2ccc(C(F)(F)F)nc2)OCC1(C)C (stereo partly drawn) [2-122, methyl 3-((4R)-5,5-dimethyl-2-oxido-2-((6-(trifluoromethyl)pyridin-3-yl)oxy)-1,3,2-dioxaphosphinane-4-carboxamido)propanoate]	1.21
COC(=O)CCNC(=O)[C@@H]1O[P@@](=O)(OCOC(=O)NCCSC(=O)[C@@H](N)C(C)C)OCC1(C)C [2-194, methyl 3-((2S,4R)-2-((((2-((L-valyl)thio)ethyl)carbamoyl)oxy)methoxy)-5,5-dimethyl-2-oxido-1,3,2-dioxaphosphinane-4-carboxamido)propanoate]	11.44
CC(C)OC(=O)CCNC(=O)[C@@H]1OP(=O)(O)OCC1(C)C [2-110, isopropyl 3-((4R)-2-hydroxy-5,5-dimethyl-2-oxido-1,3,2-dioxaphosphinane-4-carboxamido)propanoate]	2.17
CCOC(=O)[C@H](CCc1ccccc1)NP1(=O)OCC(C)(C)[C@H](C(=O)NCCC(=O)OC)O1 (stereo partly drawn) [compound 6, ethyl (2S)-2-[[(4R)-4-[(3-methoxy-3-oxo-propyl)carbamoyl]-5,5-dimethyl-2-oxo-1,3,2-dioxaphosphinan-2-yl]amino]-4-phenyl-butanoate]	1.11
CCOC(=O)CCNC(=O)[C@@H]1OP(=O)(OCOC(=O)C(C)(C)C)OCC1(C)C (single isomer, unassigned) [Compound No. 107]	85.06
COC(=O)CCNC(=O)[C@@H]1O[P@](=O)(OCOC(=O)c2scnc2C)OCC1(C)C (single isomer, unassigned) [2-150]	43.4
COC(=O)CCNC(=O)[C@@H]1OP(=O)(OCOC(=O)NCCOC(=O)C(C)(C)C)OCC1(C)C (stereo partly drawn) [2-183, 2-((((((4R)-4-((3-methoxy-3-oxopropyl)carbamoyl)-5,5-dimethyl-2-oxido-1,3,2-dioxaphosphinan-2-yl)oxy)methoxy)carbonyl)amino)ethyl pivalate]	3.5
COC(=O)CCNC(=O)[C@@H]1O[P@@](=O)(Oc2ccc(C[C@H](N)C(=O)OC)cc2)OCC1(C)C (single isomer, unassigned) [2-162]	9.73
COC(=O)CCNC(=O)[C@@H]1OP(=O)(N[C@@H](Cc2ccccc2)C(=O)OC)OCC1(C)C (stereo partly drawn) [compound 9, methyl ((4R)-4-((3-methoxy-3-oxopropyl)carbamoyl)-5,5-dimethyl-2-oxido-1,3,2-dioxaphosphinan-2-yl)-L-phenylalaninate]	1.83
COC(=O)CCNC(=O)[C@@H]1O[P@](=O)(N2CCS(=O)(=O)CC2)OCC1(C)C [compound 138, methyl 3-((2S,4R)-2-(1,1-dioxidothiomorpholino)-5,5-dimethyl-2-oxido-1,3,2-dioxaphosphinane-4-carboxamido) propanoate]	1.7
COC(=O)CCNC(=O)[C@@H]1O[P@](=O)(Oc2ccc(C#N)cc2)OCC1(C)C [2-165, methyl 3-((2R,4R)-2-(4-cyanophenoxy)-5,5-dimethyl-2-oxido-1,3,2-dioxaphosphinane-4-carboxamido)propanoate]	6.87
COC(=O)CCNC(=O)[C@@H]1O[P@](=O)(Oc2ccc(C[C@H](N)C(=O)OC)cc2)OCC1(C)C [2-163, Methyl (S)-2-amino-3-(4-(((2R,4R)-4-((3-methoxy-3-oxopropyl)carbamoyl)-5,5-dimethyl-2-oxido-1,3,2-dioxaphosphinan-2-yl)oxy)phenyl)propanoate]	81.21
COC(=O)CCNC(=O)[C@@H]1OP(=O)(OCOC(=O)N[C@@H](CSC(=O)C(C)(C)C)C(=O)OC)OCC1(C)C (stereo partly drawn) [2-148, methyl N-(((((4R)-4-((3-methoxy-3-oxopropyl)carbamoyl)-5,5-dimethyl-2-oxido-1,3,2-dioxaphosphinan-2-yl)oxy)methoxy)carbonyl)-S-pivaloyl-L-cysteinate]	4.19
COC(=O)CCNC(=O)[C@@H]1O[P@](=O)(OCOC(=O)c2cc(C)nn2C)OCC1(C)C [2-190, (((2R,4R)-4-((3-methoxy-3-oxopropyl)carbamoyl)-5,5-dimethyl-2-oxido-1,3,2-dioxaphosphinan-2-yl)oxy)methyl 1,3-dimethyl-1H-pyrazole-5-carboxylate]	52.24
COC(=O)CCNC(=O)[C@@H]1O[P@@](=O)(Oc2ccccc2C(=O)OC)OCC1(C)C [2-117, methyl 2-(((2S,4R)-4-((3-methoxy-3-oxopropyl)carbamoyl)-5,5-dimethyl-2-oxido-1,3,2-dioxaphosphinan-2-yl)oxy)benzoate]	1.11
COC(=O)CCNC(=O)[C@@H]1OP(=O)(Oc2ccc([N+](=O)[O-])cc2)OCC1(C)C (stereo partly drawn) [Compound No. 2-134, Methyl 3-((4R)-5,5-dimethyl-2-(4-nitrophenoxy)-2-oxido-1,3,2-dioxaphosphinane-4-carboxamido)propanoate]	5.37
COC(=O)CCNC(=O)[C@@H]1O[P@](=O)(OCOC(=O)c2cc(C(C)(C)C)nn2C)OCC1(C)C [2-170, (((2R,4R)-4-((3-methoxy-3-oxopropyl)carbamoyl)-5,5-dimethyl-2-oxido-1,3,2-dioxaphosphinan-2-yl)oxy)methyl 3-(tert-butyl)-1-methyl-1H-pyrazole-5-carboxylate]	82.88
CC(C)(C)C(=O)OCO[P@@]1(=O)OCC(C)(C)[C@H](C(=O)NCCC(=O)OCCC#N)O1 (single isomer, unassigned) [Compound No. 77]	93.86
COC(=O)CCNC(=O)[C@@H]1OP(=O)(OCOC(=O)N[C@@H](CSC(=O)C(C)(C)C)C(=O)O)OCC1(C)C (stereo partly drawn) [2-180, N-(((((4R)-4-((3-methoxy-3-oxopropyl)carbamoyl)-5,5-dimethyl-2-oxido-1,3,2-dioxaphosphinan-2-yl)oxy)methoxy)carbonyl)-S-pivaloyl-L-cysteine]	26.8
COC(=O)CCNC(=O)[C@@H]1O[P@@](=O)(Oc2ccc(S(F)(F)(F)(F)F)cc2)OCC1(C)C [2-124, methyl 3-((2S,4R)-5,5-dimethyl-2-oxido-2-(4-(pentafluoro-16-sulfanyl)phenoxy)-1,3,2-dioxaphosphinane-4-carboxamido)propanoate]	1.12
